# In patent publication US20250179167A1, “IL-6 INHIBITOR AS TREATMENT FOR NEPHROPATHY” (YALE UNIVERSITY, priority 2022, published 2025):
# Experiments:
# Format in all cases: in vivo, mouse
# [1] = tested on: isolated kidney ECs of diabetic CD-1 mice; assay: Fatty acid oxidation ([14CO2] release) in isolated kidney endothelial cells
# Description: (FIG. 31B) Fatty acid oxidation, as represented by [^14CO2]released. [^14C]palmitate was used as substrate and CPM counts were normalized to protein. In both cases, endothelial cells isolated from n=5 biologically independent mice/group were analyzed in triplicate. Data are mean±SEM. One-way Anova with Tukey multiple comparison post hoc test was used to calculate statistical significance. Significance—*p<0.05, **p<0.01, ***p<0.001. Fatty Acid Oxidation. Cultured isolated kidney endothelial cells were incubated with medium containing 0.75 mmol/L palmitate (conjugated to 2% free fatty acid-free BSA/[^14C]palmitate at 2 μCi/mL) for 2 h. One mL of the culture medium was transferred to a sealable tube, the cap of which housed a Whatman filter paper disc. ^14CO2 trapped in the media was then released by acidification of media using 60% perchloric acid. Radioactivity that had become adsorbed onto the filter discs was then quantified by liquid scintillation counting.
# UUO mice = assay: Wnt inhibitor (LGK974) treatment in UUO mice, renal histology, GR and β-catenin
# Description: FIG. 24A-24J show inhibition of Wnt signaling abolished the fibrogenic phenotype in mice. (FIG. 24A) Immunohistochemical analysis of -catenin expression in the kidneys of control and diabetic CD-1 and C57BL/6 mice. n=8 biologically independent mice/group combined from two independent experiments were evaluated. Scale bar 50 μm. Representative images are shown; original magnification 200×. (FIG. 24B) Relative mRNA expression determined by qRT-PCR of Axin2, Tcf and fibronectin, in kidneys of control and diabetic CD-1 and C57BL/6 mice. n=6 biologically independent mice/group combined from two experiments were evaluated. Expression was normalized to the internal control 18S. (FIG. 24C) Schematic diagram representing the treatment protocol of Wnt inhibitor (LGK974; 5 mg/kg body weight) in diabetic CD-1 mice and (FIG. 24D) in UUO mice. (FIG. 24E) Masson trichrome and Sirius red staining in the kidneys of diabetic and Wnt inhibitor-treated diabetic CD-1 mice. Representative images (original magnification 300×) are shown. Relative area of fibrosis (%) and relative collagen deposition (%) were measured using the ImageJ program. n=8 biologically independent mice/group combined from two experiments were evaluated. Scale bar 50 μm. (FIG. 24F) Masson trichrome and Sirius red staining in the kidneys of UUO and Wnt inhibitor-treated UUO mice. Representative images (original magnification 300×) are shown. Relative area of fibrosis (%) and relative collagen deposition (%) were measured using the ImageJ program. n=8 biologically independent mice/group combined from two experiments were evaluated. Scale bar 50 μm. (FIGS. 24G-24H) GR protein levels in CD31-positive cells were analyzed by immunofluorescence in the kidneys of Wnti-treated diabetic mice and Wnti-treated UUO mice. FITC-labeled GR, rhodamine-labeled CD31 and DAPI were used. Merged images and representative pictures are shown; original magnification 300×. n=7 biologically independent mice/group combined from four experiments were evaluated. Scale bar 50 μm. (FIGS. 24I-24J) Immunohistochemical analysis of active -catenin expression in Wnti-treated diabetic mice and Wnti-treated UUO mice. n=7 biologically independent mice/group combined from three experiments were evaluated. Scale bar 30 μm. Data are mean SEM. In all panels, one-way Anova with Tukey multiple comparison post hoc test was used to calculate statistical significance. Significance—*p<0.05, **p<0.01, ***p<0.001.
# Mouse model of unilateral ureteral obstruction (UUO). UUO surgical procedure was performed as previously described^19. Briefly, mice were anesthetized with isoflurane (3%-5% for induction and 1%-3% for maintenance). Mice were shaved on the left side of the abdomen, a vertical incision was made through the skin with a scalpel, and the skin was retracted. A second incision was made through the peritoneum to expose the kidney. The left ureter was ligated twice […] below the renal pelvis with surgical silk, and the ureter was then severed between the 2 ligatures. Then, the ligated kidney was placed gently back into its correct anatomical position, and sterile saline was added to replenish loss of fluid. The incisions were sutured and mice were individually caged. Buprenorphine was used as an analgesic. The first dose was administered 30 minutes before surgery and then every 12 h for 72 h, at a dose of 0.05 mg/kg subcutaneously. Mice were sacrificed and kidney and blood samples were harvested after perfusion with PBS at 10 days after UUO. Contralateral kidneys were used as a nonfibrotic control for all experiments using this model.
# Morphological Evaluation. A point-counting method was utilized to evaluate the relative area of the mesangial matrix. The inventors analyzed PAS-stained glomeruli from each mouse using a digital microscope screen grid containing 540 (27×20) points. Masson's trichrome-stained images were evaluated by ImageJ software, and the fibrotic areas were estimated.
# Sirius red staining. […]
# [2] = tested on: isolated endothelial cells; assay: Western blot in isolated endothelial cells from Wnt inhibitor-treated diabetic mice; conditions: isolated ECs from Wnt inhibitor-treated diabetic mice
# Description: Western blot analysis of Snail1, PPARα, active-β-catenin, and HIF1α proteins in isolated endothelial cells. […] Densitometry calculations are combined from three independent experiments Data are mean±SEM. One-way Anova with Tukey multiple comparison post hoc test was used to calculate statistical significance. Significance—*p<0.05, **p<0.01, ***p<0.001. Isolation of endothelial cells. Endothelial cells from the kidneys of non-diabetic and diabetic mice were isolated using a standardized kit (Miltenyl Biotech, USA) by following the manufacturer's instructions. Briefly, kidneys were isolated and minced into small pieces. Using a series of enzymatic reactions by treating the tissue with trypsin and Collagenase type I solution, a single cell suspension was created. The pellet was dissolved with CD31 magnetic beads and the CD31-labelled cells were separated on a magnetic separator. The cells were further purified on a column. Cell number was counted by hemocytometer and cells were plated on 0.1% gelatin coated Petri dishes. Cell purity was measured by flow cytometry (BD FACSDiva) using PE-conjugated CD31 (BDB553373) (1:100) and FITC-conjugated CD45 (BDB553079) (1:100), both from Becton Dickinson (USA). Western blot. Protein lysates were boiled in sodium dodecyl sulfate (SDS) sample buffer at 94′C for 5 min. […]
# diabetic CD-1 mice = assay: Plasma cytokine array (Luminex) in diabetic CD-1 mice with and without Wnti treatment
# Description: Plasma cytokines and chemokines were measured in diabetic CD-1 mice with and without Wnti treatment by using a cytokine array analysis (Luminex). n=5 biologically independent mice/group. Data are mean±SEM. Student's-test (unpaired two-tailed) was used for analysis of statistical significance. Significance—*p<0.05. In one experiment, male mice were randomized to one of 4 groups sixteen weeks after induction of diabetes: (i) untreated, (ii) fenofibrate (100 mg/kg), (iii) simvastatin (40 mg/kg), or (iv) Wnt inhibitor (LGK974; 5 mg/kg). In each case, mice were treated for 4 weeks and compared to untreated diabetic CD-1 mice. In another experiment, male diabetic CD-1 mice were randomized into one of 3 groups: (i) untreated (vehicle), (ii) etomoxir (20 mg/kg) or (iii) C75 (15 mg/kg); in each case mice were treated (IP) three times/week for a total 4 weeks.
# ECs from CD-1 mice = assay: Fatty acid uptake ([14C]palmitate uptake) in isolated kidney endothelial cells
# Description: (FIG. 31A) Fatty acid uptake was measured as [^14C]palmitate uptake. […] [^14C]palmitate was used as substrate and CPM counts were normalized to protein. In both cases, endothelial cells isolated from n=5 biologically independent mice/group were analyzed in triplicate. Data are mean±SEM. One-way Anova with Tukey multiple comparison post hoc test was used to calculate statistical significance. Significance—*p<0.05, **p<0.01, ***p<0.001. Fatty acid uptake. Cultured isolated kidney endothelial cells were incubated with medium containing 2 μCi [^14C]-palmitate. [^14C]-palmitate uptake was measured by liquid scintillation counting.
structure (smiles),measurement,setting,value
Cc1cc(-c2ncc(CC(=O)Nc3ccc(-c4cnccn4)cn3)cc2C)ccn1 [LGK974],level of FAO ([14CO2] release),[1],able to restore the level of FAO
same,ECM deposition,UUO mice; 5 mg/kg,greatly diminished
same,collagen accumulation,UUO mice; 5 mg/kg,greatly diminished
same,glomerulosclerosis,UUO mice; 5 mg/kg,greatly diminished
same,relative area of fibrosis,UUO mice; 5 mg/kg,greatly diminished
same,level of β-catenin,UUO mice; kidney immunohistochemistry,suppressed the level of β-catenin
same,endothelial GR,"UUO mice; kidney, GR in CD31-positive cells",substantially restored endothelial GR
same,"Snail1, HIF1α and PPARα proteins",[2],A similar effect was observed
same,plasma CCL4 level,diabetic CD-1 mice,significantly suppressed
same,plasma CCL5 level,diabetic CD-1 mice,increasing
same,plasma G-CSF level,diabetic CD-1 mice,significantly suppressed
same,plasma IL-1β level,diabetic CD-1 mice,significantly suppressed
same,plasma IL-6 level,diabetic CD-1 mice,significantly suppressed
same,plasma IL-10 level,diabetic CD-1 mice,significantly suppressed
same,plasma MCP-1 level,diabetic CD-1 mice,significantly suppressed
same,plasma TNFα level,diabetic CD-1 mice,significantly suppressed
same,FA uptake ([14C]palmitate uptake),ECs from CD-1 mice,suppressed FA uptake
